# Experimental data published in a melting point compilation (Tetko et al.; mined from patent text by program, amines drawn as free bases though some values may be those of a salt).
row,melting point [°C],Structure (SMILES)
1,175 to 177,O=C(NCC(=O)N1CCCC1)c1ccc(-c2ccc3nnn(Cc4ccc5ncccc5c4)c3n2)cc1F
2,132,CC(C)Oc1ccc([N+](=O)[O-])cc1OCCN1C(=O)c2ccccc2C1=O
3,79 to 80,O=C1CCC(CCC(=O)OCc2ccccc2)N1 (stereo not given)
4,120 to 122,OCC1OC(n2cnc3c(NC4CCc5ccccc54)ncnc32)C(O)C1O (stereo not given)
5,224 to 225,CC(=O)NOC(=O)Cc1cnc2ccccc2c1O
6,233 to 235,Cn1c(=O)c2c(N)ccnc2n(C)c1=O
7,108 to 110,CCCCCCCCNC(=O)c1cnc2cccc(C)n2c1=O
8,> 230,Cc1ccc(-c2ccccc2C(=O)Nc2ccc(C(=O)N3CCc4sc(NC(=N)N)nc4-c4ccccc43)cc2)cc1
9,210 to 212,COc1ccnc2[nH]c(CO)cc12
10,148 to 149,S=C(Nc1ccccc1)Nc1ncccc1OCc1c(Cl)cccc1Cl
11,104 to 106,CCOC(=O)c1cc(-c2csc(C(=O)OCC)n2)[nH]n1
12,196 to 198,COc1ccc(CNc2cc3c(Nc4ccc5c(cnn5Cc5cccc(F)c5)c4)ncnc3cn2)cc1
13,149 to 150,COc1ncccc1NC(=NC#N)NC(NC(=O)c1cc(Cl)cc(Cl)c1)C(C)(Cl)Cl (stereo not given)
14,152 to 154,CC(=O)Nc1ccc(-c2ccoc2)cc1[N+](=O)[O-]
15,239 to 240,O=C(O)C=Cc1ccc(OCC2CN(c3ccccc3)C(=O)O2)cc1 (stereo not given)
16,178 to 179,CC(C)(C)c1cc(-c2cncn2CCCCl)cc(C(C)(C)C)c1O
17,158 to 160,C#CCc1c(C)nc2c(OCc3c(C)cccc3NC(=O)C(C)=O)cccn12
18,170 to 171,CCOC(=O)c1cnn2c(-c3cccnc3)ccnc12
19,192 to 194,COC(=O)c1cn(C(c2ccccc2)(c2ccccc2)c2ccccc2)c(I)n1
20,177 to 178,CCN1CCCC(NC(=O)c2ccc(Nc3ccnc4c(C(F)(F)F)cccc34)cc2)C1 (stereo not given)
21,142 to 145,COC(=O)c1ccc2cc(OC)c(OC)cc2c1-c1ccnc(Cl)c1
22,142 to 145,COCCOc1ccc(-c2sc(N3C(=O)c4ccccc4C3=O)c(C(=O)c3ccc(Cl)cc3)c2CBr)cc1

# The remaining lines, values behind:
row,Structure (SMILES),melting point [°C]
1,N#Cc1cc(NC(=O)c2cc3ccccc3s2)ccc1N1CCC(N2CCCCC2)CC1,275
2,CCC(Cl)(CC)CC(=O)c1cc(C(C)(C)C)c(O)c(C(C)(C)C)c1,72
3,CC(C)(C=O)Cc1cc(C(C)(C)C)c(O)c(C(C)(C)C)c1,72 to 74
4,CC#Cc1ncn2c1[C@@H]1CCCN1C(=O)c1c(Cl)cccc1-2,208 to 209
5,O=C(NCCN1CCOCC1)NCc1ccc2c(c1)Cc1c(-c3ccsc3)n[nH]c1-2,168 to 170
6,O=C(C=C1NC(c2ccc(F)cc2)=NC1(C(F)(F)F)C(F)(F)F)c1ccc(F)cc1,121 to 123
7,CN(C)C(=O)Nc1cc(O)cc(O)c1,230
8,C#CCCCCOc1ccc(C=O)cc1OC,67 to 68
9,CN1CCN(CCCc2cc3ccccc3c(=O)[nH]2)CC1,120 to 122
10,CC1(C)[C@@H]2[C@H]1[C@@H](O)O[C@H]2C(Cl)(Cl)Cl,100 to 105
11,COc1cc(S(=O)(=O)Nc2ccccc2)c(OC)cc1NC(=O)[C@@](C)(O)C(F)(F)F,194 to 195
12,CC1ON(C)C(=O)C1=Cc1cc(C(C)(C)C)c(O)c(C(C)(C)C)c1 (stereo not given),147 to 150
13,CC(c1cccc(O)c1)N(C)C (stereo not given),85 to 86
14,CC(C)C12OC1C1OC13C1(C)CCC4=C(COC4=O)C1CC1OC13C2O (stereo not given),226 to 228
15,CCCCCCCCS(=O)(=O)ON=C(C#N)c1cccs1,77 to 82
16,CC1(C)OC[C@@H]([C@@H]2CC(=O)N2)O1,91 to 92
17,CCCCCCCCCCCCc1ccccc1C(Sc1nc(CCC)c(C(=O)O)n1C)C(=O)O (stereo not given),124 to 125
18,Clc1cc2c(nn1)CCCCCCCCCC2,126 to 128
